In ChEMBL document CHEMBL4359900 (Eur J Med Chem, 2019):
Active and inactive are the calls of the source. The rule behind the calls is not given here.

Experiments:
[1] = target: T1, 5-hydroxytryptamine receptor 2C (Homo sapiens, UniProt P28335); assay: (§1) Agonist activity at recombinant human unedited 5HT2C receptor isoform INI expressed in Flp-In-293 cells assessed as increase in calcium influx measured for 300 secs by Fluo-4 dye based FLIPR assay; assay type: functional, cell-based
T1 sequence (P28335 whole entry): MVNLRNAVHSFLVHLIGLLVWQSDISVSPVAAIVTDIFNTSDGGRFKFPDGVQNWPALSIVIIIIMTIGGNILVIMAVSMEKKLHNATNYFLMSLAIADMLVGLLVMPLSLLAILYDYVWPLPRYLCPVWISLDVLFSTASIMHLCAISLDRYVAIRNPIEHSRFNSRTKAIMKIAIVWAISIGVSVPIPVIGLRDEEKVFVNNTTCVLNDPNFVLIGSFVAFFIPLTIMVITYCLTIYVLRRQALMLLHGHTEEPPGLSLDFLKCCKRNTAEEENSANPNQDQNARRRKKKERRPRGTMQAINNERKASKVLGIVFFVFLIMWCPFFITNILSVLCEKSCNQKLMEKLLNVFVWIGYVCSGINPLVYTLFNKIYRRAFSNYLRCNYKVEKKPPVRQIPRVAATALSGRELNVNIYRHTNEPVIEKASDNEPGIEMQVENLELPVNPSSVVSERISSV

[2] = target: T2, 5-hydroxytryptamine receptor 2B (Homo sapiens, UniProt P41595); assay: Agonist activity at recombinant human 5HT2B receptor expressed in Flp-In-293 cells assessed as increase in calcium influx measured for 300 secs by Fluo-4 dye based FLIPR assay; assay type: cell-based
T2 sequence (P41595 whole entry): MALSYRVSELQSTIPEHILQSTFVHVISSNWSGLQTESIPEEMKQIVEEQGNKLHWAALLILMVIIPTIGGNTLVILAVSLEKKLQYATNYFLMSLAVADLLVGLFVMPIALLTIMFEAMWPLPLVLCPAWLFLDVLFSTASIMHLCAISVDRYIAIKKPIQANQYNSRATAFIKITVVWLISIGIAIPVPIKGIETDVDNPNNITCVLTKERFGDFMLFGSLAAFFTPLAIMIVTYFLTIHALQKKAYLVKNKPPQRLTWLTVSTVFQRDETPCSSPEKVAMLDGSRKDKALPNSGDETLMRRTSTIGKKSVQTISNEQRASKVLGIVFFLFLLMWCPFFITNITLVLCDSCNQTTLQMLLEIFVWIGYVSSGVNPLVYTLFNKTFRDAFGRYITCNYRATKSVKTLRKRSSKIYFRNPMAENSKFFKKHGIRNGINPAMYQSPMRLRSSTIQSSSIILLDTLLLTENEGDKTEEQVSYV

5-HT2A receptor = 5-HT2A receptor (Homo sapiens, UniProt P28223); assay: (§2) Agonist activity at recombinant human 5HT2A receptor expressed in Flp-In-293 cells assessed as increase in calcium influx measured for 300 secs by Fluo-4 dye based FLIPR assay relative to control; assay type: cell-based; settings: Flp-In-293 cells expressing recombinant human 5HT2A receptor
Chain of 5-HT2A receptor (P28223 whole entry, canonical isoform): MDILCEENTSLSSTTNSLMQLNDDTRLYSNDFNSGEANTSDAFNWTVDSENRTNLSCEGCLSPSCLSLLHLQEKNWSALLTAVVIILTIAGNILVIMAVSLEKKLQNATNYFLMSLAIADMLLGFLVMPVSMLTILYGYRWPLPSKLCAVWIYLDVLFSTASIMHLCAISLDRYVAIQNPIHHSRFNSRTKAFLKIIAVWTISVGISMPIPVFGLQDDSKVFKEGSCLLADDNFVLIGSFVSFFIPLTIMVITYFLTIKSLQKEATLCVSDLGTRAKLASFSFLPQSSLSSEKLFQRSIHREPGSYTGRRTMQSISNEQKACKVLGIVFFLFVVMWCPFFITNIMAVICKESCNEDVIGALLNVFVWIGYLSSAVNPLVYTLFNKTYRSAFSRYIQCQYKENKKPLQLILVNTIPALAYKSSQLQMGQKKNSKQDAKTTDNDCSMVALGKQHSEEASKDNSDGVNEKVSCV

[3] = target: T3, 5-hydroxytryptamine receptor 2C (Homo sapiens) (UniProt P28335); assay: Agonist activity at recombinant human unedited 5HT2C receptor isoform INI expressed in Flp-In-293 cells assessed as increase in calcium influx measured for 300 secs by Fluo-4 dye based FLIPR assay relative to control; assay type: functional, cell-based
T3 sequence (whole entry): T1 sequence (P28335 whole entry)

5-HT2B receptor = 5-HT2B receptor (Homo sapiens, UniProt P41595); assay: Agonist activity at recombinant human 5HT2B receptor expressed in Flp-In-293 cells assessed as increase in calcium influx measured for 300 secs by Fluo-4 dye based FLIPR assay relative to control; assay type: cell-based; settings: Flp-In-293 cells expressing recombinant human 5HT2B receptor
Chain of 5-HT2B receptor (P41595 whole entry): as the sequence (P41595 whole entry) above

[4] = target: T4, 5-hydroxytryptamine receptor 2A (Homo sapiens, UniProt P28223); assay: Agonist activity at recombinant human 5HT2A receptor expressed in Flp-In-293 cells assessed as increase in calcium influx measured for 300 secs by Fluo-4 dye based FLIPR assay; assay type: cell-based
T4 sequence (P28223 whole entry): as the sequence (P28223 whole entry, canonical isoform) above

[5] = target: T2, 5-hydroxytryptamine receptor 2B; assay: Agonist activity at recombinant human 5HT2B receptor expressed in Flp-In-293 cells assessed as increase in calcium influx up to 10 uM measured for 300 secs by Fluo-4 dye based FLIPR assay; assay type: cell-based; settings: flp-in-293, 5 min
[6] = target: Serotonin 2 receptors; 5-HT2a & 5-HT2c (Homo sapiens) (UniProt P28223+P28335); assay: Selectivity ratio of EC50 for recombinant human 5HT2A receptor expressed in Flp-In-293 cells to EC50 for recombinant human unedited 5HT2C receptor isoform INI expressed in Flp-In-293 cells; assay type: cell-based
Chain of Serotonin 2 receptors; 5-HT2a & 5-HT2c (Homo sapiens) (P28223 whole entry, looked up, one chain of several, canonical isoform): as the sequence (P28223 whole entry, canonical isoform) above

[7] = target: T4, 5-hydroxytryptamine receptor 2A; assay: Agonist activity at recombinant human 5HT2A receptor expressed in Flp-In-293 cells assessed as increase in calcium influx up to 10 uM measured for 300 secs by Fluo-4 dye based FLIPR assay; assay type: cell-based; settings: flp-in-293, 5 min
[8] = target: T3, 5-hydroxytryptamine receptor 2C (Homo sapiens); assay: as §1; assay type: functional, cell-based
[9] = target: T3, 5-hydroxytryptamine receptor 2C (Homo sapiens); assay: Agonist activity at recombinant human unedited 5HT2C receptor isoform INI expressed in Flp-In-293 cells assessed as increase in calcium influx up to 10 uM measured for 300 secs by Fluo-4 dye based FLIPR assay; assay type: functional, cell-based
Homo sapiens = organism: Homo sapiens; assay: Selectivity ratio of EC50 for recombinant human 5HT2B receptor expressed in Flp-In-293 cells to EC50 for recombinant human unedited 5HT2C receptor isoform INI expressed in Flp-In-293 cells; assay type: cell-based
[10] = target: T4, 5-hydroxytryptamine receptor 2A; assay: as §2; assay type: cell-based; settings: flp-in-293, 5 min

Structure (SMILES)	EC50 [1]	EC50 ([2]; read-out: EC50)	Emax at 5 min (5-HT2A receptor)	Emax [3]	Emax at 5 min (5-HT2B receptor)	EC50 [4]	Activity [5]	Ratio EC50 [6]	Activity [7]	pEC50 [8]	Activity [9]	Ratio EC50 (Homo sapiens)	Emax [10]	EC50 ([2]; read-out: pEC50 (converted))
COc1ccc(F)cc1C1(F)CC1CN (racemic)	598 nM	116 nM	86%	90%	79%	352 nM								
Cc1cccc([C@@]2(F)C[C@@H]2CN)c1.Cl	8 nM		71%	96%		162 nM	Not Active	20						
CNC[C@H]1C[C@]1(F)c1ccccc1	291 nM	565 nM	40%	96%	42%	156 nM								
Cc1cccc([C@]2(F)C[C@H]2CN)c1.Cl	5250 nM			97%			Not Active		Not Active					
Cl.NC[C@@H]1C[C@@]1(F)c1cccc(F)c1							Not Active		Not Active	inactive	inactive			
Cl.NC[C@@H]1C[C@@]1(F)c1cccc(Cl)c1	1060 nM			92%			Not Active		Not Active					
COc1ccccc1CNC[C@H]1C[C@]1(F)c1ccccc1	789 nM	363 nM	83%	85%	27%	320 nM								
NC[C@@H]1C[C@@]1(F)c1ccccc1	4110 nM	903 nM	47%	87%	77%	1830 nM								
NCC1C(c2ccccc2)C1(F)F (racemic)	4430 nM	2350 nM	43%	82%	62%	3680 nM								
NC[C@H]1C[C@]1(F)c1ccccc1	4.7 nM	10 nM	106%	98%	104%	10 nM						2		
Cl.NC[C@H]1C[C@]1(F)c1ccccc1Br	312 nM		38%	71%		122 nM	Not Active							
COc1ccccc1CNCC1CC1(F)c1cc(F)ccc1OC (racemic)	229 nM	285 nM	92%	103%	61%	31 nM								
NCCc1c[nH]c2ccc(O)cc12 [SEROTONIN]													100%	
NC[C@H]1C[C@]1(F)c1cccc(Cl)c1	12 nM	22 nM	102%	110%	91%	23 nM								
NC[C@H]1C[C@]1(F)c1cccc(F)c1	3 nM	2 nM	83%	107%	106%	3 nM								2.29 nM
Cl.NC[C@@H]1C[C@@]1(F)c1ccccc1Br							Not Active		Not Active	inactive	inactive			
